This assay has as its system B6C3F1 mice, colon carcinoma 38 s.c., T/C. The experiment in a line: NCI In Vivo Anticancer Drug Screen. Data for tumor model Colon Carcinoma 38 (subcutaneous) in B6C3F1 mice. To be noted: endpoint: median tumor weight (est.), higher = larger tumour. The method, then: The antitumor activity of compounds was measured in mice bearing transplantable tumors. Survival or tumor size were measured and the results are expressed as the measurement made in the treated group (T) divided by the measurement made in the vehicle treated control group (C). The tumor model used in this assay is Colon Carcinoma 38 (subcutaneous) in B6C3F1 mice

[1] abbreviates: dose: 25.0 mg/kg/injection, schedule: Q07DX002 (ip), vehicle: saline.
Where [2] appears, read: dose: 50.0 mg/kg/injection, schedule: Q07DX002 (ip), vehicle: saline.
[3] abbreviates: dose: 100.0 mg/kg/injection, schedule: Q07DX002 (ip), vehicle: saline.
Where [4] appears, read: dose: 25.0 mg/kg/injection, schedule: Q07DX002 (ip), vehicle: Klucel (hydroxypropylcellulose) (HPC).
The mark [5] stands for this setting: dose: 50.0 mg/kg/injection, schedule: Q07DX002 (ip), vehicle: Klucel (hydroxypropylcellulose) (HPC).
The mark [6] stands for this setting: dose: 200.0 mg/kg/injection, schedule: Q07DX002 (ip), vehicle: saline.
The mark [7] stands for this setting: dose: 400.0 mg/kg/injection, schedule: Q07DX002 (ip), vehicle: saline.
Setting [8] is: dose: 25.0 mg/kg/injection, schedule: Q07DX002 (ip), vehicle: water.
[9] abbreviates: dose: 50.0 mg/kg/injection, schedule: Q07DX002 (ip), vehicle: water.

Inconclusive results are not listed.

For the compound `NC(CSC(c1ccccc1)(c1ccccc1)c1ccccc1)C(=O)O` (stereo unspecified), the T/C runs as follows: (dose: 32.0 mg/kg/injection, schedule: Q07DX002 (ip), vehicle: saline with Tween-80) 87 % of control; (dose: 32.0 mg/kg/injection, schedule: Q07DX003 (ip), vehicle: saline with Tween-80) 46 % of control; (dose: 64.0 mg/kg/injection, schedule: Q07DX002 (ip), vehicle: saline with Tween-80) 81 % of control; (dose: 64.0 mg/kg/injection, schedule: Q07DX003 (ip), vehicle: saline with Tween-80) 105 % of control; (dose: 128.0 mg/kg/injection, schedule: Q07DX002 (ip), vehicle: saline with Tween-80) 63 % of control; (dose: 128.0 mg/kg/injection, schedule: Q07DX003 (ip), vehicle: saline with Tween-80) 72 % of control. Moreover, the T/C (dose: 256.0 mg/kg/injection, schedule: Q07DX002 (ip), vehicle: saline with Tween-80) is 30 % of control; the T/C (dose: 256.0 mg/kg/injection, schedule: Q07DX003 (ip), vehicle: saline with Tween-80) was 45 % of control; the T/C (dose: 512.0 mg/kg/injection, schedule: Q07DX002 (ip), vehicle: saline with Tween-80) is 2 % of control.
As to `CCCCCCCCCCCCCCCCCCOCC(COP(=O)([O-])OCC[N+](C)(C)C)OC` (stereo unspecified), the T/C (dose: 12.5 mg/kg/injection, schedule: Q07DX002 (ip), vehicle: saline) is 122 % of control; the T/C under setting [1] is 119 % of control; the T/C under setting [2] was 89 % of control; the T/C under setting [3] is 73 % of control.
In the case of `OC(CBr)C(O)C(O)C(O)CBr` (stereo unspecified), the T/C under setting [4] was 83 % of control and the T/C under setting [5] was 83 % of control.
As for `NC(=O)C1=CC2C3C=CC2(O)C(=O)OC3O1` (stereo unspecified), the T/C was 73 % of control (dose: 7.5 mg/kg/injection, schedule: Q07DX002 (ip), vehicle: Klucel (hydroxypropylcellulose) (HPC)); 86 % of control (dose: 15.0 mg/kg/injection, schedule: Q07DX002 (ip), vehicle: Klucel (hydroxypropylcellulose) (HPC)); 112 % of control (dose: 30.0 mg/kg/injection, schedule: Q07DX002 (ip), vehicle: Klucel (hydroxypropylcellulose) (HPC)).
Take `O=c1[nH]c(=O)n([C@H]2CCCO2)cc1F`: the T/C by setting is: (dose: 80.0 mg/kg/injection, schedule: Q07DX003 (ip), vehicle: Klucel (hydroxypropylcellulose) (HPC)) 51 % of control; (dose: 160.0 mg/kg/injection, schedule: Q07DX003 (ip), vehicle: Klucel (hydroxypropylcellulose) (HPC)) 85 % of control; (dose: 320.0 mg/kg/injection, schedule: Q07DX003 (ip), vehicle: Klucel (hydroxypropylcellulose) (HPC)) 80 % of control; (dose: 640.0 mg/kg/injection, schedule: Q07DX003 (ip), vehicle: Klucel (hydroxypropylcellulose) (HPC)) 25 % of control.
`CCCCCNc1ncnc2c(C)[nH]nc12`: the T/C under setting [5] is 123 % of control; the T/C (dose: 100.0 mg/kg/injection, schedule: Q07DX002 (ip), vehicle: Klucel (hydroxypropylcellulose) (HPC)) was 102 % of control; the T/C (dose: 200.0 mg/kg/injection, schedule: Q07DX002 (ip), vehicle: Klucel (hydroxypropylcellulose) (HPC)) is 77 % of control.
For the compound `O=C(O)Cc1cccc2c(=O)cc(Cc3ccccc3)oc12`, the T/C under setting [3] was 60 % of control, the T/C under setting [6] was 111 % of control and the T/C under setting [7] is 122 % of control.
In the same order, the values of `O=C(O)Cc1cccc2c(=O)c(-c3ccccc3)coc12` are 177 % of control, 76 % of control and 121 % of control.
In the case of `OCC1OC(n2cnc3c(=S)nc[nH]c32)C(O)C1O` (stereo unspecified), the T/C was 74 % of control (dose: 250.0 mg/kg/injection, schedule: Q07DX002 (ip), vehicle: suspension in saline); 31 % of control (dose: 500.0 mg/kg/injection, schedule: Q07DX002 (ip), vehicle: suspension in saline); 41 % of control (dose: 1000.0 mg/kg/injection, schedule: Q07DX002 (ip), vehicle: suspension in saline).
As for `Oc1ccc(CCl)c2cccnc12`, the T/C was 91 % of control under setting [1], 105 % of control under setting [2], 94 % of control under setting [3] and 106 % of control under setting [6].
For `S=P(N1CC1)(N1CC1)N1CC1`, the T/C is 58 % of control (dose: 3.0 mg/kg/injection, schedule: Q07DX003 (ip), vehicle: saline); 57 % of control (dose: 6.0 mg/kg/injection, schedule: Q07DX003 (ip), vehicle: saline); 23 % of control (dose: 12.0 mg/kg/injection, schedule: Q07DX003 (ip), vehicle: saline).
With `CNC(=O)c1cccc2c(Nc3ccc(NS(C)(=O)=O)cc3OC)c3cccc(C)c3nc12`, the T/C by setting is: (dose: 6.25 mg/kg/injection, schedule: Q07DX002 (ip), vehicle: water) 60 % of control; (dose: 12.5 mg/kg/injection, schedule: Q07DX002 (ip), vehicle: water) 48 % of control; under setting [8], 17 % of control; under setting [9], 4 % of control.
As for `O=C(Cc1cccc2c(=O)cc(-c3ccccc3)oc12)OCCN1CCOCC1`, the T/C runs as follows: (dose: 50.0 mg/kg/injection, schedule: Q07DX002 (ip), vehicle: suspension in saline) 70 % of control; (dose: 100.0 mg/kg/injection, schedule: Q07DX002 (ip), vehicle: suspension in saline) 49 % of control; (dose: 200.0 mg/kg/injection, schedule: Q07DX002 (ip), vehicle: suspension in saline) 68 % of control; (dose: 300.0 mg/kg/injection, schedule: Q07DX002 (ip), vehicle: suspension in saline) 17 % of control.
Consider `[Na+]`, for which the T/C is 100 % of control under setting [9]; 57 % of control (dose: 100.0 mg/kg/injection, schedule: Q07DX002 (ip), vehicle: water); 68 % of control (dose: 200.0 mg/kg/injection, schedule: Q07DX002 (ip), vehicle: water); 58 % of control (dose: 400.0 mg/kg/injection, schedule: Q07DX002 (ip), vehicle: water); 63 % of control (dose: 800.0 mg/kg/injection, schedule: Q07DX002 (ip), vehicle: water).
As for `CCC(/C=C/C1OC(=O)C=CC1C)=C\C(C)C/C=C/C(C)=C/C(C)C(=O)C(C)C(O)C(C)C/C(C)=C/C(=O)O` (stereo unspecified), the T/C (dose: 100.0 micrograms/kg/injection, schedule: Q07DX002 (ip), vehicle: other) was 56 % of control; the T/C (dose: 200.0 micrograms/kg/injection, schedule: Q07DX002 (ip), vehicle: other) is 105 % of control; the T/C (dose: 400.0 micrograms/kg/injection, schedule: Q07DX002 (ip), vehicle: other) is 85 % of control; the T/C (dose: 800.0 micrograms/kg/injection, schedule: Q07DX002 (ip), vehicle: other) is 102 % of control; the T/C (dose: 1600.0 micrograms/kg/injection, schedule: Q07DX002 (ip), vehicle: other) was 98 % of control.
Consider `O=NN(CCF)C(=O)NC1CCCCC1`, for which the T/C is, setting by setting: (dose: 6.25 mg/kg/injection, schedule: Q07DX002 (ip), vehicle: Klucel (hydroxypropylcellulose) (HPC)) 115 % of control; under setting [4], 77 % of control.
As for `CC[C@H](CC[C@@H](C)C1CC[C@H]2[C@@H]3CC=C4C[C@@H](OP(=O)(N5CC5)N5CC5)CC[C@]4(C)[C@H]3CC[C@]12C)C(C)C` (stereo partly specified), the T/C (dose: 225.0 mg/kg/injection, schedule: Q07DX002 (ip), vehicle: saline with Tween-80) was 246 % of control; the T/C (dose: 450.0 mg/kg/injection, schedule: Q07DX002 (ip), vehicle: saline with Tween-80) is 205 % of control; the T/C (dose: 900.0 mg/kg/injection, schedule: Q07DX002 (ip), vehicle: saline with Tween-80) was 115 % of control.
Take `O=C(CCCN1CCC(C(O)c2ccc(F)cc2)CC1)c1ccc(F)cc1` (stereo unspecified): the T/C runs as follows: (dose: 12.5 mg/kg/injection, schedule: Q07DX002 (ip), vehicle: saline with Tween-80) 59 % of control; (dose: 25.0 mg/kg/injection, schedule: Q07DX002 (ip), vehicle: saline with Tween-80) 49 % of control; (dose: 50.0 mg/kg/injection, schedule: Q07DX002 (ip), vehicle: saline with Tween-80) 92 % of control; (dose: 100.0 mg/kg/injection, schedule: Q07DX002 (ip), vehicle: saline with Tween-80) 67 % of control.
In the case of `Cc1cc(=O)c2cccc(CC(=O)O)c2o1`, the T/C (dose: 400.0 mg/kg/injection, schedule: Q07DX002 (ip), vehicle: Klucel (hydroxypropylcellulose) (HPC)) was 117 % of control.
Regarding `COc1ccc(OC)c(Cc2cnc3nc(N)nc(N)c3c2C)c1`, the T/C was 72 % of control under setting [8] and 104 % of control under setting [9].

The values above are taken from PubChem BioAssay AID214 (DTP/NCI, 2004).
